Measured values taken from patent US20140200210A1, “PHARMACEUTICAL COMPOSITION FOR TREATING PREMATURE EJACULATION AND METHOD FOR TREATING PREMATURE EJACULATION” (CTC BIO, INC., priority 2011, published 2014).
Structures can show the parent of a compound that is named as a salt.

Tested on: male patients suffering from premature ejaculation
Experiment: Phase 2b clinical study, effect evaluation: intravaginal ejaculation latency time (IELT)
Type: in vivo, human
From the text: Male patients suffering from premature ejaculation were subject to the following parallel clinical study (Phase 2b) (randomized, double-blind, placebo-controlled and fixed dose study) for evaluating tolerance and determining a proper therapeutic capacity.
• Subjects who passed screening entered a 4-week run-in period, and were randomized in 1:1:1 ratio of 2 groups with clomipramine and 1 group with placebo and subject to a double blind experiment. […] Each subject visited the hospital after taking the test drugs for 4 weeks by on-demand therapy.
Group 0 was administered with a tablet of 15 mg placebo and a tablet of 30 mg placebo, Group 1 was administered with a tablet of 15 mg clomipramine HCl and a tablet of 30 mg placebo, and Group 2 was administered with a tablet of 30 mg clomipramine HCl and a tablet of 15 mg placebo for 4 weeks on-demand at about 2 hours to 6 hours prior to sexual activity. The tablets were orally taken with a glass of water.
Primary effectiveness evaluation variables in this clinical study include an IELT fold change at visit 3 (measuring between 0 and 4 weeks) relative to baseline values (i.e., IELT fold change=Value of IELT measured at visit 3 (0 to 4 weeks)/Value of IELT measured at baseline) in each of Group 0 (with treatment of placebo), Group 1 (with treatment of 15 mg clomipramine HCl) and Group 2 (with treatment of 30 mg clomipramine HCl). […]
(1) After administering placebo and 15 mg of clomipramine, and placebo and 30 mg of clomipramine for the period of 4 weeks, a change (%) of IELT values between 0 to 4 weeks after administration, relative to before administration, was calculated by the equation [Change (%) of IELT Values=(Value of IELT measured at 0 to 4 weeks−Value of IELT measured at baseline)×100/Value of IELT measured at baseline].
(2) After administering placebo and 15 mg of clomipramine, and placebo and 30 mg of clomipramine for the period of 4 weeks, a mean change of IELT values between 0 to 4 weeks after administration was calculated. […]

Compound: CN(C)CCCN1c2ccccc2CCc2ccc(Cl)cc21 [clomipramine, clomipramine hydrochloride]
- minimum effective dose (case of ITT1): 30 mg
- minimum effective dose (cases of ITT2 and ITT3): 15 mg
- minimum effective dose (considering overall situations): 15 mg
